Results on 2 compounds are retold here after ChEMBL document CHEMBL1144039, “Antioxidant capacity of BO-653, 2,3-dihydro-5-hydroxy-4,6-di-tert-butyl-2,2-dipentylbenzofuran, and uric acid as evaluated by ORAC method and inhibition of lipid peroxidation” (2008).

Each structure is given as a SMILES string.

One experiment deals with Plasma. In words: Antioxidant activity in human plasma assessed as inhibition of cholesteryl ester hydroperoxide formation after 60 mins relative to control. In kind it is functional.
Experiment [1] in a line: Antioxidant activity assessed as oxygen radical scavenging activity in presence of human plasma by ORAC method relative to control. In kind it is functional, cell-free.

In the case of `CCCCCC1(CCCCC)Cc2c(cc(C(C)(C)C)c(O)c2C(C)(C)C)O1` [BO-653], the Ratio with Plasma is on record as 0.23. In addition, the Ratio AUC in experiment [1] was 1.23.
Take `Oc1nc(O)c2nc(O)[nH]c2n1` [URIC ACID]: the Ratio in the experiment on Plasma is 0.78. The Ratio AUC in experiment [1] turned out to be 1.52.
